From patent US5486508A, “Cyclodextrin composition” (TAKEDA Chemical Industries Ltd., priority 1991, dated 1996)
Values after ≈ are worked out from the molar mass of the structure shown. Like-named read-outs stand apart in the source and are kept apart here.

Tests used:
[1] = Solubility of diazepam or clofibrate complex with G2 βCD versus drug alone
Source text: The solubility of the complex was compared with that of the drug alone.

[2] = water
Procedure: (§1) The aqueous solution was added to the above ethyl alcohol solution with stirring. The solution thus obtained was lyophilized to obtain a powder.
(§2) After 4 hours, the mixture was filtered through a filter having pore size of 0.22 μm.

[3] = Stability of powders at 40° C. for 2 weeks (residual amount of Compound A by HPLC); type: physicochemical; details: powder storage, 336 h
Procedure: The residual amounts of Compound A was determined by HPLC.

[4] = water; remark: listed apart in the source
Procedure: as §1, §2

SMILES | solubility [1] | Comparison of solubilities (solubility concentration of Compound A) [2] | Stability, Residual rate [3] | Comparison of solubilities (solubility concentration of Compound A) [4]
CCOC(=O)C(C)(C)Oc1ccc(Cl)cc1 [Clofibrate, clofibrate] | 36 µg/mL (≈ 148 µM) | – | – | –
CO[C@@H]1[C@H](OC(=O)NC(=O)CCl)CC[C@]2(CO2)[C@H]1[C@@]1(C)O[C@@H]1CC=C(C)C [Compound A, 6-O-(N-chloroacetylcarbamoyl)fumagillol] | – | 1700 µg/mL | 81.4% | 1700 µg/mL
